Assay results published in ChEMBL document CHEMBL1201862, “PubChem BioAssay data set” (2004).
Each block holds one molecule with its values, some of them ahead of it. Active and inactive are the calls of the source.

Assays:
[1] = Trypanosoma cruzi growth suppression in host cells – NIH3T3 host cells, beta-gal luminescence, confirmation (AID 2044); type: functional, cell-based;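 note: intracellular parasites grown in NIH/3T3 mouse fibroblasts as host cells; luminescent beta-galactosidase reporter signal from transgenic T. cruzi replicating inside host cells; inhibitors lower the luminescence signal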
[2] = NIH3T3 cell viability loss – ATP luminescence, mouse fibroblasts, counter-screen, dose response (AID 2010); type: functional, cell-based;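 note: cells exposed to compound for about 90 hours before reading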
Cytochrome P450 2C9 = Cytochrome P450 2C9 (Homo sapiens, UniProt P11712)
[3] = viability of uninfected HEp-2 cells – cell-based, HTS, cytotoxicity control for RSV inhibitor project, dose response (AID 2410); type: functional; details: human respiratory syncytial virus
Cytochrome P450 3A4 = Cytochrome P450 3A4 (Homo sapiens, UniProt P08684);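 note: CYP3A4 tested as one member of a cytochrome P450 panel screen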
Cytochrome P450 2D6 = Cytochrome P450 2D6 (Homo sapiens, UniProt P10635);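 note: CYP2D6 member of a cytochrome P450 panel assay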
Sequence of Cytochrome P450 2D6 (P10635 whole entry): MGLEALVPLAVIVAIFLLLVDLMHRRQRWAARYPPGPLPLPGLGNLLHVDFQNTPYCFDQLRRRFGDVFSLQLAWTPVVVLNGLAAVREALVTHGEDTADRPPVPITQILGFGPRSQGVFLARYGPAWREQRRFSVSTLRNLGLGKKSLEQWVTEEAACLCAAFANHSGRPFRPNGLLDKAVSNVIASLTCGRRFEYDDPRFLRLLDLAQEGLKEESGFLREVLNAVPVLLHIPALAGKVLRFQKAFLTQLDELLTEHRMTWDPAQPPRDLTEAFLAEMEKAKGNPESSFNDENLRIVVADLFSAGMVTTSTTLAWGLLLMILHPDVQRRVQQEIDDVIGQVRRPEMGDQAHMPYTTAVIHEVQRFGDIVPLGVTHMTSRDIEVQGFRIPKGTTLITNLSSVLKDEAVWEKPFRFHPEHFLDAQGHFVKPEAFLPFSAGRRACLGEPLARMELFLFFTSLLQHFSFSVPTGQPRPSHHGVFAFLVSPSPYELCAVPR

Sequence of Cytochrome P450 2C9 (P11712 whole entry): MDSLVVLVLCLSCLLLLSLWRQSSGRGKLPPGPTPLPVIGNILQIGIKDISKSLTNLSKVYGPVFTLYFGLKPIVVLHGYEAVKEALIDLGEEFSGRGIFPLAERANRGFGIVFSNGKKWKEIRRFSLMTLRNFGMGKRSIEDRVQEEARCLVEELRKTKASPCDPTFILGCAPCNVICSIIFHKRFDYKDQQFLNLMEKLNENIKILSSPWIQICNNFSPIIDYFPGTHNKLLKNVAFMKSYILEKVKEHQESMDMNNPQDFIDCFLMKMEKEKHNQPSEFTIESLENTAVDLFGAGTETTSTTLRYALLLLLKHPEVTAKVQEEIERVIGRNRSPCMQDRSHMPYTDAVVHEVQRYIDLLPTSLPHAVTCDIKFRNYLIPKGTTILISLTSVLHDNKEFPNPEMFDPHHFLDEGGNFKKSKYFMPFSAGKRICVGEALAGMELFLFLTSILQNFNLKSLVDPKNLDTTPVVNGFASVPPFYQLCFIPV
Sequence of Cytochrome P450 3A4 (P08684 whole entry): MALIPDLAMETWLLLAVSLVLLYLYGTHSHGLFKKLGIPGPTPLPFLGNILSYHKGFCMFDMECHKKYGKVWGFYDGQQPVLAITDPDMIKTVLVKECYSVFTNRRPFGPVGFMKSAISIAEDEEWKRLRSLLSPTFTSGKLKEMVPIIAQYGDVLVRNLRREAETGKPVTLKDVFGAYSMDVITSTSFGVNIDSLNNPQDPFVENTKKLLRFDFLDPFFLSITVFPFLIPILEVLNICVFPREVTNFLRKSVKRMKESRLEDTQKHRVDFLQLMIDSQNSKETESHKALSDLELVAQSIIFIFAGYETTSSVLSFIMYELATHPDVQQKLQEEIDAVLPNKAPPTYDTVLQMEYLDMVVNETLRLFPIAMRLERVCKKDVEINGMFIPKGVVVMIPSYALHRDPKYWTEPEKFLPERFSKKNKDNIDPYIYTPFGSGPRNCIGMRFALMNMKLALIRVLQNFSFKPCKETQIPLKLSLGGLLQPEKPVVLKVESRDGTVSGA

Compound: NC(=O)C1CCN(C(=O)C(=O)c2cn(CC(=O)N3CCCCCC3)c3ccccc23)CC1
EC50 [1]: 1.32 µM (active)
EC50 [2]: > 60 µM (not active)

AC50 (Cytochrome P450 2C9): 11.2 µM (inconclusive)
Compound: Cc1cc(NC(=S)Nc2ccccc2)ccc1Br

Compound: Cc1ccc(S(=O)(=O)N2CCC(=O)N(C(COCc3ccc(Cl)cc3Cl)Cc3ccccc3)CC2)cc1 (stereo not drawn)
EC50 [1]: 1.58 µM (active)
EC50 [2]: 34.1 µM (active)

Compound: O=C(/C=C/c1cccc([N+](=O)[O-])c1)NCCSCc1ccccc1Cl
CC50 [3]: 25.4 µM (active)

AC50 (Cytochrome P450 3A4): 7.94 µM (inconclusive)
Compound: Cn1c(=O)c(-c2ccc(F)cc2)nc2cncnc21

Compound: O=C(NCCN1CCN(C(=O)C(c2ccccc2)c2ccccc2)CC1)C(=O)Nc1ccccc1
AC50 (Cytochrome P450 2C9): 12.6 µM (inconclusive)

Compound: Cc1ccc(NC2=NC(=O)CS2)cc1
CC50 [3]: 34.3 µM (active)

Compound: CC(C)(C)c1ccc(C(=O)N2CCC(C(=O)NC3CCCCCC3)CC2)cc1
CC50 [3]: 42 µM (active)

AC50 (Cytochrome P450 2D6): 3.16 µM (inconclusive)
Compound: COc1cc(/C=C(/C#N)c2nc3ccccc3[nH]2)ccc1Oc1ncccc1[N+](=O)[O-]

Compound: c1ccc2c(N3CCOCC3)nc(-c3ccncc3)nc2c1
CC50 [3]: 42.6 µM (active)

AC50 (Cytochrome P450 2D6): 39.8 µM (inconclusive)
AC50 (Cytochrome P450 3A4): 7.94 µM (inconclusive)
Compound: CC(=O)N1CCC2(CCCN(c3cccc(-c4ccccc4)c3)C2)CC1

Compound: COCc1ccc(CN2CCCC(CCC(=O)NCc3cccc(OC)c3)C2)o1 (stereo not drawn)
EC50 [1]: 0.914 µM (active)
EC50 [2]: > 60 µM (not active)

AC50 (Cytochrome P450 2D6): 15.8 µM (inconclusive)
Compound: CCOC(=O)c1cc2sc(C)cc2n1CCCN1C(=O)c2ccccc2C1=O

AC50 (Cytochrome P450 2C9): 12.6 µM (inconclusive)
Compound: O=C(c1cccs1)n1nc(-c2ccc(Cl)cc2)nc1NCc1ccco1

AC50 (Cytochrome P450 3A4): 3.55 µM (inconclusive)
Compound: Cc1cc(C)c(C#N)c(OCC(=O)c2ccc(Br)cc2)n1

AC50 (Cytochrome P450 3A4): 3.98 µM (inconclusive)
Compound: S[C@@H]1CCCN(Cc2ccccc2)C1

Compound: Cc1sc2ccccc2c1CC1=NCCN1 [METIZOLINE]
AC50 (Cytochrome P450 2D6): 31.6 µM (inconclusive)

Compound: CC1CCc2nc(NC(=O)c3ccc(S(=O)(=O)N4CCCc5ccccc54)cc3)sc2C1 (stereo not drawn)
EC50 [1]: 1.42 µM (active)
EC50 [2]: > 60 µM (not active)

Compound: CCCS(=O)(=O)N1CCN(Cc2ccc3c(c2)c2ccccc2n3CC)CC1
CC50 [3]: 20.4 µM (active)

AC50 (Cytochrome P450 3A4): 28.2 µM (inconclusive)
Compound: CCC(=O)NC(=S)N1CCN(c2ccc([N+](=O)[O-])cc2Cl)CC1

Compound: CCOC(=O)c1oc2ccc(CNC3CCCCC3)c(Cl)c2c1C
EC50 [1]: 1.73 µM (active)
EC50 [2]: > 60 µM (not active)

Compound: O=C1Nc2ccccc2CCC1Sc1nnc(-c2ccc(Cl)cc2)s1 (stereo not drawn)
CC50 [3]: 3.7 µM (active)

Compound: COc1ccc(CCN(C)CC(=O)Nc2c(C)cc(C)cc2C)cc1OC
EC50 [1]: 0.592 µM (active)
EC50 [2]: > 60 µM (not active)

Compound: O=C(Cc1sc(Nc2ccccc2)nc1-c1ccccc1)NCc1ccccc1
CC50 [3]: 11.2 µM (active)

AC50 (Cytochrome P450 2D6): 3.16 µM (inconclusive)
AC50 (Cytochrome P450 2C9): 0.631 µM (inconclusive)
Compound: COc1ccccc1CNc1ncnc2ccc(-c3ccccc3C#N)cc12

AC50 (Cytochrome P450 2C9): 11.2 µM (inconclusive)
Compound: COc1cccc(CNC(=O)C2CCN(S(=O)(=O)N3CCCCC3)CC2)c1

AC50 (Cytochrome P450 3A4): 15.8 µM (inconclusive)
Compound: O=c1cnc2cnc(N3CCOCC3)nc2n1CCc1ccccc1

Compound: Cc1ccc2ccc(S(=O)(=O)NCc3ccco3)cc2c1
CC50 [3]: 29.2 µM (active)

AC50 (Cytochrome P450 3A4): 12.6 µM (inconclusive)
Compound: COCCn1c(=O)c(-c2ccc(F)cc2)nc2cncnc21

Compound: COc1ccc(C(=O)C2CCCN(Cc3cnc(N4CCCC4)s3)C2)cc1OC (stereo not drawn)
EC50 [1]: 0.26 µM (active)
EC50 [2]: > 30 µM (not active)

AC50 (Cytochrome P450 3A4): 3.55 µM (inconclusive)
Compound: Cc1nc(N2CCOCC2)nc(N2CCN(c3ccccc3)CC2)c1[N+](=O)[O-]

AC50 (Cytochrome P450 3A4): 20 µM (inconclusive)
AC50 (Cytochrome P450 2C9): 25.1 µM (inconclusive)
Compound: Cc1ccc([N+](=O)[O-])cc1/N=C(/c1cccc([N+](=O)[O-])c1)N1CCOCC1

Compound: COc1ccc(CCNc2cc(C)nc3c(-c4ccccc4)cnn23)cc1OC
CC50 [3]: 43.2 µM (active)

Compound: Cc1ccc2occ(/C=N/NC(N)=S)c(=O)c2c1
CC50 [3]: > 50 µM (active)

Compound: Cc1ccc(CN(Cc2cccnc2)C(S)=Nc2cc(Cl)ccc2C)cc1
EC50 [1]: 1.61 µM (active)
EC50 [2]: > 60 µM (not active)

AC50 (Cytochrome P450 2D6): 3.16 µM (inconclusive)
AC50 (Cytochrome P450 2C9): 3.98 µM (inconclusive)
Compound: CO[C@@H]1/C=C\O[C@@]2(C)Oc3c(C)c(O)c4c(c3C2=O)/C(=N/[C@H]2CC[C@H](O)O[C@@H]2C)C=C(NC(=O)/C(C)=C\C(=O)[C@@H]2C[C@@H]2[C@@H](O)[C@H](C)[C@@H](O)[C@H](C)[C@H](OC(C)=O)[C@@H]1C)C4=O

AC50 (Cytochrome P450 3A4): 11.2 µM (inconclusive)
AC50 (Cytochrome P450 2C9): 0.0891 µM (inconclusive)
Compound: Cc1ccc(-n2c(SCc3ccc([N+](=O)[O-])cc3)nc3ccccc3c2=O)cc1

AC50 (Cytochrome P450 3A4): 3.98 µM (inconclusive)
Compound: COC(=O)CC[C@@H](C)[C@H]1CC[C@H]2[C@H]3CC[C@H]4C[C@@H]5CC[C@@]4(C)C3(O5)[C@@H](Br)[C@@H](Br)[C@@]12C

Compound: CC1CCc2sc3nc(NCc4ccco4)n4ncnc4c3c2C1 (stereo not drawn)
CC50 [3]: 30.3 µM (active)

Compound: O=C(c1ccc(Cl)cc1)N1CCN(c2ccc([N+](=O)[O-])c(NCc3cccnc3)c2)CC1
CC50 [3]: 35.8 µM (active)

Compound: O=C(NCc1cccnc1)c1c(O)c2cccc3c2n(c1=O)CCC3
CC50 [3]: 22.8 µM (active)

Compound: CCC(C)c1ccc(NC(=O)c2cccs2)cc1 (stereo not drawn)
CC50 [3]: < 0.1 µM (active)

Compound: Clc1ccccc1CSc1cc2c(nn1)-c1ccccc1CC2
CC50 [3]: 22.9 µM (active)

Compound: COc1ccc2nc(O)c(CNc3cccc(C)c3)cc2c1
CC50 [3]: 6.97 µM (active)

AC50 (Cytochrome P450 2D6): 12.6 µM (inconclusive)
Compound: CCCCOC(=O)c1ccc(O)cc1 [BUTYLPARABEN]

AC50 (Cytochrome P450 2D6): 22.4 µM (inconclusive)
Compound: Cc1ccc(/C=C/C2=Cc3c(sc(NC(=O)CSc4nnc(N)[nH]4)c3C#N)C(C)(C)C2)o1

Compound: CC(C)N1CCN(Cc2ccc(-c3ccccc3Cl)o2)CC1CCO (stereo not drawn)
EC50 [1]: 1.61 µM (active)
EC50 [2]: > 60 µM (inconclusive)

Compound: Cn1nc([N+](=O)[O-])nc1Oc1ccccc1N
EC50 [1]: 1.08 µM (active)
EC50 [2]: > 60 µM (not active)

AC50 (Cytochrome P450 3A4): 3.98 µM (inconclusive)
Compound: CO[C@H]1COC(=O)C/C=C\[C@@H](C)COC(=O)[C@@H](OCc2ccccc2)/C=C\[C@@H]1C

AC50 (Cytochrome P450 2C9): 2.82 µM (inconclusive)
Compound: Cc1ccc(NC(=O)CC2CS(=O)(=O)CC2CC(=O)Nc2ccc(C)c(C)c2)cc1C (stereo not drawn)

AC50 (Cytochrome P450 2D6): 39.8 µM (inconclusive)
Compound: c1cncc(-c2ccc3ncnc(NCCN4CCOCC4)c3c2)c1

AC50 (Cytochrome P450 2D6): 39.8 µM (inconclusive)
AC50 (Cytochrome P450 2C9): 5.01 µM (inconclusive)
Compound: O=C(Oc1ccccc1)N1CCC2(CCCN(c3ccccn3)C2)CC1

AC50 (Cytochrome P450 2D6): 11.2 µM (inconclusive)
AC50 (Cytochrome P450 2C9): 20 µM (inconclusive)
Compound: CCOC(=O)C1=C2SCC(=O)N2C(N)=C(C#N)C1

Compound: CC(C)NC(=O)c1sc2nc3c(c(-c4cccs4)c2c1N)CN(C)CC3
EC50 [1]: 0.856 µM (active)
EC50 [2]: > 60 µM (inconclusive)

Compound: CCCN(CC#CC(O)(c1ccccc1)c1cccnc1)CCC (stereo not drawn)
EC50 [1]: 0.463 µM (active)
EC50 [2]: > 60 µM (not active)

AC50 (Cytochrome P450 2D6): 12.6 µM (inconclusive)
Compound: O=C1CC(N2CCN(CCc3ccccn3)CC2)C(=O)N1c1ccc(Cl)cc1 (stereo not drawn)

Compound: Cc1nc(N)sc1-c1csc(Nc2cccc(O)c2)n1
CC50 [3]: 48.4 µM (active)

AC50 (Cytochrome P450 3A4): 0.794 µM (inconclusive)
Compound: CCCC[C@@H]1C[C@H]1C(NC(=O)c1cccnc1)c1ccc(-c2ccccc2)cc1 (stereo partly drawn)

Compound: c1ccc(Nc2nc(-c3ccccc3)nc3ccccc23)cc1
CC50 [3]: 24.8 µM (active)
